A word on the Kd: it is the constant that tells how readily two partners part at equilibrium.

Where two headings read alike, the source gives them in different places. Where no end group is shown, it is not given here.

One experiment addresses ctRetromer (Thermochaetoides thermophila, UniProt G0RZB5+G0S709). The experiment can be described thus: ITC, binding to ctRetromer. Set-up: species or system Chaetomium thermophilum. On the procedure:
(§1) All the bacterial constructs were expressed in BL21(DE3) competent cells using standard isopropyl 1-thio-β-D-galactopyranoside induction or autoinduction method as described previously[39],[72],[73]. To obtain the Retromer trimer complex, the GST-tagged Vps29 and Vps35 co-expressed cell pellet were mixed with His-Vps26 and resuspended in lysis buffer containing 50 mM Tris-HCl pH 7.5, 200 mM NaCl, 5% glycerol, 50 μg/ml benzamidine and DNase I before passed through a Constant System TS-Series cell disruptor. […] For all constructs, the lysate was clarified by centrifugation and the supernatant was loaded onto either Talon® resin (Clonetech) or glutathione sepharose (GE healthcare) for initial purification. To obtain the correct stoichiometry ratio of the Retromer complex, both Talon® resin and glutathione sepharose (GE healthcare) were applied. […] The flow-through containing complex was further purified using size-exclusion chromatography (SEC) equilibrated with a buffer containing 50 mM Tris-HCl pH 7.5, 200 mM NaCl, 2 mM β-ME. […] To avoid the non-specific cleavage by the residual proteases such as thrombin, a tablet of protease inhibitor cocktail was added into the complex mixture. To remove the unbound fractions, the complex mixture was further purified using Superose 6 increase 10/300 GL column using the SEC buffer described above.
In brief, the clarified lysate was loaded onto glutathione sepharose (GE healthcare) and eluted using elution buffer containing 50 mM Tris-HCl pH 7.5, 200 mM NaCl, 5% glycerol, 20 mM glutathione reduced and 50 μg/ml benzamidine. The flow-through was further purified using SEC as the final purification step. To avoid the degradation, the constructs containing N-terminal disordered parts of Vps5 and Vps17 were used in fresh and experiments were finished within 3 days after purification.
(§2) All the proteins used for ITC experiments were prepared in buffer containing 50 mM Tris-HCl pH 7.5, 200 mM NaCl, 2 mM β-ME. […] In all cases, the ITC titration sequence consisted of an initial 0.4 μl (not used in data processing) followed by 12 serial injections of 3.22 μl each with 180 s intervals. The resulting titration data were integrated with Malvern software package by fitting and normalized data to a single-site binding model, yielding the thermodynamic parameters Kd, ∆H, ∆G and −T∆S for all binding experiments. The stoichiometry was refined initially, and if the value was close to 1, then N was set to exactly 1.0 for calculation. Data presented are the mean of triplicate titrations for each experiment.
(In ITC the heat of successive injections is recorded.)

Experiment [1] addresses ctRetromer (Chaetomium thermophilum Retromer trimer of ctVps35, ctVps26 and ctVps29) (Chaetomium thermophilum). As to the kind of experiment: ITC; Microcal PEAQ ITC, 25 °C, 50 mM Tris-HCl pH 7.5, 200 mM NaCl, 2 mM β-ME; Vps5/Vps17/SNX1 construct or peptide (200-400 µM) titrated into 10-15 µM Retromer or Vps29; single-site model, N set to 1.0 if close to 1.
Experiment [2] addresses mouse VPS29 (mVPS29), long isoform (mouse). Described as above.
Experiment [3] has as its system scRetromer and scSNX-BAR on supported membrane tubes. As to the kind of experiment: Supported membrane tube (SMT) assay. Format: biochemical, Saccharomyces cerevisiae. The settings on record: scSNX-BAR and scRetromer on SMTs containing 5% PtdIns(3)P.
Method: Supported membrane tubes were generated as described[46]. Briefly, glass coverslips were first washed with 3 M NaOH for 5 min and rinsed with water before a 60 min treatment with piranha solution (95% H2SO4/30% H2O2 3:2 v/v). Coverslips were rinsed with water and dried on a heat block at 90 °C. Coverslips were then silanized with 3-glycidyloxypropyltrimethoxysilane (Catalogue no. 440167, Sigma) for 5 h under vacuum, rinsed with acetone and dried. Polyethylene glycol coating was done by placing the coverslips in a beaker containing PEG400 (Sigma) at 90 °C for 60 h. Coverslips were washed with distilled water and stored for up to 2 months at room temperature in a closed container.
To generate supported membrane tubes, lipids were mixed from 10 mg/mL stocks in a glass vial and diluted to a final concentration of 1 mg/mL in chloroform. The same lipid mix was used throughout this study (5% PI(3)P, 15% DOPS, 0.1% fluorescent lipid tracer (Cy5.5 PE or Texas red DHPE), 79.5% egg-PC). Lipids were then spotted (typically 1 µL, corresponding to about 1 nmol) on the coverslips and dried for 30 min under vacuum. The coverslip was mounted on an IBIDI 6-channel µ-slide (µ-Slide VI 0.4. IBIDI, catalog no: 80606). Lipids were hydrated for 15 min with buffer (PBS) and SMTs were generated by injecting PBS into the chamber using an Aladdin Single-Syringe Pump (World Precision Instruments, model n°. AL-1000) at a flow rate of 1,5 mL/min for 5 min. SMTs were left to stabilize without flow for 5 min before the start of the experiment. Protein stocks (typically 1–2 µM) were first diluted in PBS and then injected in the chamber at a flow rate of 80 µL per minute. Cyclic peptides were added to the proteins from a 30 mM stock in DMSO to a final concentration of 300 µM. the protein/peptide mix was incubated for 1 min at room temp (23 °C) before being added to the SMTubes.
For the next experiment, the target named is T1, mVps29 (Mus musculus, UniProt Q9QZ88).
T1 construct: GST (thrombin site) (N, cleaved yes); made in house; host or cells: E. coli BL21(DE3)
The experiment can be described thus: ITC, binding to mVps29. The following applies: ITC, mVps29. Here is the method: as §1, §2

In a further experiment the target is T2, hRetromer (Homo sapiens, UniProt Q96QK1+Q9UBQ0).
T2 construct: GST (N); made in house; host or cells: E. coli BL21(DE3) (general statement for bacterial constructs)
The experiment can be described thus: ITC, binding to hRetromer. The settings on record: for binding to hRetromer: ITC, same conditions as ctRetromer. On the procedure: as §1, §2

[4] abbreviates: ITC, ctRetromer, Average of 3 batches.
[5] abbreviates: ctRetromer alone, ITC 25 °C, pH 7.5, 200 mM NaCl, mean of triplicate titrations.

Chain of ctRetromer (G0RZB5 entry or part of it): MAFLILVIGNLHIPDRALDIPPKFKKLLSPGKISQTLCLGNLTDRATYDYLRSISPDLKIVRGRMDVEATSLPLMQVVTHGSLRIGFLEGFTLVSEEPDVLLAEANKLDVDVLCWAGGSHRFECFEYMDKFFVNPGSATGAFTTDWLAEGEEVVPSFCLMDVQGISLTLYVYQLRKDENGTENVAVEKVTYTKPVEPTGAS
Chain of ctRetromer (G0S709 entry or part of it): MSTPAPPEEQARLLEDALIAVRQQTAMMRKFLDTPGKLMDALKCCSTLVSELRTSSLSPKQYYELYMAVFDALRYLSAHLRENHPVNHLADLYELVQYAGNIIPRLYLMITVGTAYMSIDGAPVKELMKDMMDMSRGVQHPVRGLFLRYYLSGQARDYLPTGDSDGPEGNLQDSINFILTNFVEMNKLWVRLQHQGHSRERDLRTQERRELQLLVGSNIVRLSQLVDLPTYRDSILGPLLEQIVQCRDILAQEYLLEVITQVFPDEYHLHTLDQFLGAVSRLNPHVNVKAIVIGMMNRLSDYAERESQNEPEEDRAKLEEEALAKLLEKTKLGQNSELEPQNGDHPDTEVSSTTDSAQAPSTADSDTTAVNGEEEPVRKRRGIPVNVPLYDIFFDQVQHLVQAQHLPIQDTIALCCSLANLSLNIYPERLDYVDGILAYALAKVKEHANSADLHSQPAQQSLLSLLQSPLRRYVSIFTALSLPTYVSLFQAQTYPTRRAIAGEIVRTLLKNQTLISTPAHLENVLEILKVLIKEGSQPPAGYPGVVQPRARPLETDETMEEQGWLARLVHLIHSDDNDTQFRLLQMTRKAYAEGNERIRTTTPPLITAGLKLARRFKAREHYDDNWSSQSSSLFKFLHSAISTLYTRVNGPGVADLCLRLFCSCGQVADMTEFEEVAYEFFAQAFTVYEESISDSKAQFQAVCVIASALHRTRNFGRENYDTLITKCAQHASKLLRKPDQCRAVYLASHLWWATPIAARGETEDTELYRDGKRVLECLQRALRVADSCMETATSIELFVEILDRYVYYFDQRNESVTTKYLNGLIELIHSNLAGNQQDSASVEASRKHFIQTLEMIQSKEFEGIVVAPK
Chain of ctRetromer (G0S0E6 entry or part of it, further chain): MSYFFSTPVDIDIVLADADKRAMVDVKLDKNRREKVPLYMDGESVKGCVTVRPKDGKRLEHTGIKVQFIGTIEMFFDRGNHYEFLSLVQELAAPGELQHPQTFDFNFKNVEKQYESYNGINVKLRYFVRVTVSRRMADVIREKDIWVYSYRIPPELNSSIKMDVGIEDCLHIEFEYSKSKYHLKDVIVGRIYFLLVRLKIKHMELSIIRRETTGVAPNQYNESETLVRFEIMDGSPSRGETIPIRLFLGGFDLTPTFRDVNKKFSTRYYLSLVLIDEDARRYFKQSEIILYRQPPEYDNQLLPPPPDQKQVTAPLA

As to “SRATPRRIVAKPKSLEAVEDDPLGPLGA [ctVPS5 53 to 80]”, the “Delta G” value is recorded as -8.38 kcal/mol at ctRetromer (setting [4]); -8.4 kcal/mol on ctRetromer (ITC, ctRetromer, Batch 1); -8.35 kcal/mol on ctRetromer (ITC, ctRetromer, Batch 2); -8.38 kcal/mol on ctRetromer (ITC, ctRetromer, Batch 3). The “Delta H” value on ctRetromer (setting [4]) is -2.83 kcal/mol; at ctRetromer (ITC, ctRetromer, Batch 1), -3.44 kcal/mol; on ctRetromer (ITC, ctRetromer, Batch 2), -2.43 kcal/mol; at ctRetromer (ITC, ctRetromer, Batch 3) it was -2.62 kcal/mol. For the same molecule, the “minus T delta S” value was -5.57 kcal/mol at ctRetromer (setting [4]); -4.89 kcal/mol at ctRetromer (ITC, ctRetromer, Batch 1); -5.98 kcal/mol on ctRetromer (ITC, ctRetromer, Batch 2); -5.85 kcal/mol on ctRetromer (ITC, ctRetromer, Batch 3).

For the molecule GST-ctVps5_(1–185) (domain or fragment), in experiment [1], the Kd was determined as 0.72 µM and the dH was -3.1 kcal/mol. In experiment [2], this molecule displayed a Kd of 4.82 µM and a dH of -0.91 kcal/mol.

With “scRetromer-mRuby: purified recombinant scRetromer carrying mRuby”, the “coat formation / recruitment on SMTs” value in experiment [3] is given as “co-recruited to the tubes within a minute after their addition”.

As for EDDPLGPLGA [ctVPS5 71 to 80], the “Delta G” value at mVps29 (Average of 3 batches) is recorded as -5.8 kcal/mol; at mVps29 (Batch 1), -5.92 kcal/mol; at mVps29 (Batch 2), -5.8 kcal/mol; at mVps29 (Batch 3) it was -5.82 kcal/mol. The “Delta H” value at mVps29 (Average of 3 batches) is reported as -8.0 kcal/mol; at mVps29 (Batch 1) it was -6.98 kcal/mol; on mVps29 (Batch 2) it was -9.07 kcal/mol; at mVps29 (Batch 3), -7.81 kcal/mol. The Kd entry on ctRetromer (ITC, ctRetromer, Batch 1) is “No binding”; at ctRetromer (ITC, ctRetromer, Batch 2), “No binding”; at ctRetromer (ITC, ctRetromer, Batch 3) it was “No binding”.

In experiment [2], ctVps5_(71–80) peptide displayed an equilibrium dissociation constant (Kd) of 54.1 µM and a dH of -8 kcal/mol.

Regarding “GST-ctVps5_(51–100) PL74AA (domain or fragment)”, in experiment [1], the dissociation constant (Kd) stood at 5.04 µM and the dH is -1.76 kcal/mol.

Turning to “SRATPRRIVAKPKSLEAVEDDPLGPLGA [ctVps5_53–80 peptide]”, the Kd on ctRetromer (read-out: Kd) came out at 0.74 ± 0.05 µM.

For GST-ctVps5_(1–50) (domain or fragment), in experiment [1], the Kd was found to be 40.1 µM and the dH is -2.7 kcal/mol.

Take “GST-ctVps5_61–80: GST-tagged ctVps5 residues 61–80 (VAKPKSLEAVEDDPLGPLGA; not fully specified (N-terminus); also: GST fusion, end not given here)”: in the experiment with ctRetromer (ITC 25 °C, pH 7.5, 200 mM NaCl), the “binding to ctRetromer” value is given as “bind very weakly”. Moreover, in the experiment with ctRetromer (setting [5]), the ΔG was -5.76 ± 0.12 kcal/mol, the ΔH is -7.22 ± 1.94 kcal/mol and the “−TΔS” value is 1.45 ± 2.07 kcal/mol. Besides, in the experiment with ctRetromer (ctRetromer alone, Microcal PEAQ ITC, 25 °C, 50 mM Tris-HCl pH 7.5, 200 mM NaCl, 2 mM β-ME, single-site model, mean of triplicate titrations, read-out: Kd), the Kd turned out to be 60.1 ± 12.2 µM.

B1: scSNX-BAR-GFP: scVps5–scVps17 heterodimer tagged with GFP (protein)
chain 1: MDYEDNLEAPVWDELNHEGDKTQSLVSNSIESIGQISTNEERKDNELLETTASFADKIDLDSAPEWKDPGLSVAGNPQLEEHDNSKADDLINSLAPEQDPIADLKNSTTQFIATRESGGALFTGNANSPLVFDDTIYDANTSPNTSKSISGRRSGKPRILFDSARAQRNSKRNHSLKAKRTTASDDTIKTPFTDPLKKAEKENEFVEEPLDDRNERRENNEGKFTASVEKNILEQVDRPLYNLPQTGANISSPAEVEENSEKFGKTKIGSKVPPTEKAVAFKVEVKDPVKVGELTSIHVEYTVISESSLLELKYAQVSRRYRDFRWLYRQLQNNHWGKVIPPPPEKQSVGSFKENFIENRRFQMESMLKKICQDPVLQKDKDFLLFLTSDDFSSESKKRAFLTGSGAINDSNDLSEVRISEIQLLGAEDAAEVLKNGGIDAESHKGFMSISFSSLPKYNEADEFFIEKKQKIDELEDNLKKLSKSLEMVDTSRNTLAASTEEFSSMVETLASLNVSEPNSELLNNFADVHKSIKSSLERSSLQETLTMGVMLDDYIRSLASVKAIFNQRSKLGYFLVVIENDMNKKHSQLGKLGQNIHSEKFREMRKEFQTLERRYNLTKKQWQAVGDKIKDEFQGFSTDKIREFRNGMEISLEAAIESQKECIELWETFYQTNL
chain 2: MTSAVPYDPYDDLDNNPFAEPQEEDSEPAATTTDGSSSMSEERVGTEQTAASVQDNGTANNIQNGLGEEGNATRSKTSNEHNENQQPSQPSERVILPERSDEKKKYTLLAKVTGLERFGSATGKKENPTIIFDCSTNLPTFRKQQYKNVKKSYEEFHQLFKYLNVAIQESFVPTLPSAYTTFGINSEEDRMKVTRNFQLWFNRLSQDPLIIRNEEVAFFIESDFNTYTPINKSKSLASGLKRKTLKQLAPPYDEITELAEFRPLVKSIYVVSQSLQEKLLRVSRNRKMMVQEENAFGQDFVNLDEHNKLYRRYGKILTAVGDIDSIIATMDMATLYDGLEWIVRDAYAVKEALTNRHFIMRNLVQAQQNSKAKQEQARRFRSRRDINPMKIDEALRQLKAAAKNEQVLTLKLQRITSNMIIERKQWISWYEEWIRSSIKEFTLRKIEYERKKLTLLERVRSDIRKADENGGLSRLGRHAVSNNNSDTSQTLKGDSWTGESNRKSQIPINKIAHTEFDDELFTEDDGYNSQDSDTTSLNARHAASLLGMSTK
For B1, in experiment [3], the “coat formation / recruitment on SMTs” value is recorded as “co-recruited to the tubes within a minute after their addition”.

In experiment [1], VAKPKSLEAVEDDPLGPLGA (domain or fragment, also: GST fusion) [GST-ctVps5_(61–80)] returned a Kd of 60.1 µM and a dH of -7.22 kcal/mol.

B2: GST-mSNX1_1–139: SNX1 N-terminal residues 1–139 (protein)
chain: MASGGGGCSASERLPPPFPGLEPESEGAAGGSEPEAGDSDTEGEDIFTGAAVVSKHQSPKITTSLLPINNGSKENGIHEEQDQEPQDLFADATVELSLDSTQNNQKKVLAKTLISLPPQEATNSSKPQPTYEELEEEEQ
modifications: left off: GST, end not stated, kept
For the molecule B2, the Kd entry with hRetromer (ITC 25 °C, 50 mM Tris-HCl pH 7.5, 200 mM NaCl, 2 mM β-ME, mean of triplicate titrations) is reported as “No binding detected”. Also, the “binding to hRetromer” value is recorded as “no detectable interaction” with hRetromer (listed as GST-hSNX1_1–139) and “no detectable association” with hRetromer (listed as human SNX1).

In experiment [1], SRATPRRIVAKPKSLEAVEDDPLGPLGA [ctVps5_(53–80) peptide] returned a Kd of 0.74 µM and a dH of -2.83 kcal/mol.

These data come from article PMC12000511, “Molecular basis for the assembly of the Vps5-Vps17 SNX-BAR proteins with Retromer” (Nature Communications, 2025).
